{
  "source": "patent US20210220320A1",
  "about": "“ANALGESIC AGENT AND SEDATIVE AGENT” (THE UNIVERSITY OF TOKYO, priority 2018, published 2021)",
  "key": {"[1]": {"test_system": "mice subjected to the formalin test", "test": "Formalin test (inflammatory pain model), pain behavior in mice", "type": "in vivo, mouse", "experimental": "The formalin test, which is an inflammatory pain model and is commonly used as a neuropathic pain model in a broad sense, was used to evaluate the pain-inhibiting effect of disulfiram (DSF).\nIn the formalin test, each mouse was placed in a transparent container for 30 minutes for acclimation to the analysis environment. Thereafter, a test drug or a solvent control (a solution of 10% DMSO and 2% Tween-80) was administered intraperitoneally to each mouse, and 30 minutes later, 20 μL of 1% formalin was injected subcutaneously from the palmar surface of the right hind paw to observe pain behavior in each mouse. The duration (sec.) of paw lifting and paw licking was used as a measured value of intensity of pain.\nThe formalin test is one of the commonly used models that are used as pain models to evaluate analgesic effects. A biphasic pain-like behavior is observed in the formalin test; the first response appears within 5 minutes and disappears till 10 minutes after the administration of formalin, and the second response is a response that reappears within 10 to 15 minutes after the administration of formalin (FIG. 1A).\nDSF is metabolized in the body to generate diethyldithiocarbamate (DDC). The analgesic effects of metal complexes of DDC, which are considered to generate DDC in the body as well as DSF, was evaluated by the formalin test. The formalin test was performed in the same manner as in the above-described section 1. except that a copper complex of DDC (Cu(DDC)2) and an iron(III) complex of DDC (Fe(DDC)3) were used as test drugs. Either of the complexes was administered to mice at a dose of 40 mg/kg."}, "[2]": {"test_system": "sciatic nerve ligation (CCI) mouse", "test": "Sciatic nerve ligation (CCI) model, plantar test of pain threshold for heat", "type": "in vivo", "conditions": "40 mg/kg intraperitoneally, plantar test 30 min after administration; p<0.01 (FIG. 2)", "description": "Since central sensitization was known to be involved in the second phase pain response in the formalin test, DSF was expected to also exert its effects on neuropathic pain. […] Thus, the sciatic nerve ligation (CCI) model, which is commonly used as a neuropathic pain mouse model, was used to evaluate the efficacy of DSF. In the sciatic nerve ligation (CCI) mouse group, a femoral region of each mouse was cut open and the muscle layer was removed to expose the sciatic nerve, and the sciatic nerve was ligated with 6-0 silk sutures at three positions spaced 1 mm apart, and the incision was then closed. In contrast, each mouse in the sham operation (Sham) group was subjected to the same operation till the muscle layer was removed, and the incision was then closed without ligating the exposed sciatic nerve. On one week postsurgery or later, the planter test was performed to evaluate the pain threshold for heat, which was a stimulus not associated with stimulant administration, in those mice. DSF was administered intraperitoneally to mice in the CCI DSF group at a dose of 40 mg/kg. The solvent control (a solution of 10% DMSO and 2% Tween-80) was administered instead of DSF to mice in the CCI control group. The plantar test was performed 30 minutes after administration."}},
  "data": [
    {"smiles": "CCN(CC)C(=S)SSC(=S)N(CC)CC", "note": "[DSF, tetraethylthiuram disulfide]", "values": [
      {"measurement": "analgesic effect (suppression of the second response) at 10 mg/kg", "setting": "[1]; 10 mg/kg intraperitoneally, versus solvent control (FIG. 1C)", "result": "significant analgesic effects"},
      {"measurement": "suppression of the second response (pain score) in the formalin test", "setting": "[1]; 40 mg/kg intraperitoneally, 30 min before 1% formalin, p<0.001 (FIG. 1B)", "result": "strongly suppressed"},
      {"measurement": "dose dependency of suppression of the second response relative to solvent control (100%)", "setting": "[1]; DSF dose groups, intraperitoneal (FIG. 1C)", "result": "analgesic effects in a dose-dependent manner"},
      {"measurement": "analgesic effect compared with existing analgesics (pregabalin, loxoprofen, aspirin), suppression of the second response", "setting": "[1]; all drugs at a fixed dose of 40 mg/kg (FIG. 1D)", "result": "stronger analgesic effects than all of the tested existing analgesics"},
      {"measurement": "sedative effect (behavior of treated mice)", "setting": "[1]; mice in the formalin test after intraperitoneal administration", "result": "behaved more quietly"},
      {"measurement": "reduction in pain threshold associated with sciatic nerve ligation (CCI)", "setting": "[2]", "result": "prevented to a significant degree"}
    ]}
  ]
}
